For test [1], the target named is 72 kDa type IV collagenase (Mus musculus, UniProt P33434). As to the kind of experiment: (§1) Inhibition of matrix metalloprotease-2.
Test [2] addresses Matrix metalloproteinase-9 (Mus musculus, UniProt P41245). The test can be described thus: Inhibitory concentration required against matrix metalloprotease-9 (MMP-9 gelatinase B).
A further test addresses Collagenase 3 (Homo sapiens, UniProt P45452). The test can be described thus: Inhibition of matrix metalloprotease-13.
For test [3], the target named is 72 kDa type IV collagenase (Homo sapiens, UniProt P08253). The description is as §1.
In test [4] the target is Matrix metalloproteinase-9 (Homo sapiens, UniProt P14780). As to the kind of experiment: Inhibition of matrix metalloprotease-9.
In a further test the target is Stromelysin-1 (Homo sapiens, UniProt P08254). As to the kind of experiment: Inhibition of matrix metalloprotease-3.
Another test has as its target T1, Interstitial collagenase (Homo sapiens, UniProt P03956).
T1 sequence (P03956 whole entry): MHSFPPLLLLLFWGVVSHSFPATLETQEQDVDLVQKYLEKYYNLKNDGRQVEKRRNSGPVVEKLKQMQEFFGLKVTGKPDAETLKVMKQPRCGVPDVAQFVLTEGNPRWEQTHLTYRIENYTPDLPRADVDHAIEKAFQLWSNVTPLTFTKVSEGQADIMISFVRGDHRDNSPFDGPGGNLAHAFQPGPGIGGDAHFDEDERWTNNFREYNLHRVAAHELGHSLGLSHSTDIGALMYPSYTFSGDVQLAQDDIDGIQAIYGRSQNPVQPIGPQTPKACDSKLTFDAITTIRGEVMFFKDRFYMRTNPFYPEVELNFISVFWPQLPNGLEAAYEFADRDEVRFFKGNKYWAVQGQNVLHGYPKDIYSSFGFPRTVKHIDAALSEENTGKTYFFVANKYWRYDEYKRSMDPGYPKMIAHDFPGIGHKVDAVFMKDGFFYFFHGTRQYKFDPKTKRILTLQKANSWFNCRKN
The test can be described thus: Inhibition of matrix metalloprotease-1.

The term IC50 denotes the point on the concentration scale where inhibition reaches its midpoint. Low values mean higher potency, high ones lower potency.

72 kDa type IV collagenase (Homo sapiens, UniProt P08253), sequence (P08253 whole entry): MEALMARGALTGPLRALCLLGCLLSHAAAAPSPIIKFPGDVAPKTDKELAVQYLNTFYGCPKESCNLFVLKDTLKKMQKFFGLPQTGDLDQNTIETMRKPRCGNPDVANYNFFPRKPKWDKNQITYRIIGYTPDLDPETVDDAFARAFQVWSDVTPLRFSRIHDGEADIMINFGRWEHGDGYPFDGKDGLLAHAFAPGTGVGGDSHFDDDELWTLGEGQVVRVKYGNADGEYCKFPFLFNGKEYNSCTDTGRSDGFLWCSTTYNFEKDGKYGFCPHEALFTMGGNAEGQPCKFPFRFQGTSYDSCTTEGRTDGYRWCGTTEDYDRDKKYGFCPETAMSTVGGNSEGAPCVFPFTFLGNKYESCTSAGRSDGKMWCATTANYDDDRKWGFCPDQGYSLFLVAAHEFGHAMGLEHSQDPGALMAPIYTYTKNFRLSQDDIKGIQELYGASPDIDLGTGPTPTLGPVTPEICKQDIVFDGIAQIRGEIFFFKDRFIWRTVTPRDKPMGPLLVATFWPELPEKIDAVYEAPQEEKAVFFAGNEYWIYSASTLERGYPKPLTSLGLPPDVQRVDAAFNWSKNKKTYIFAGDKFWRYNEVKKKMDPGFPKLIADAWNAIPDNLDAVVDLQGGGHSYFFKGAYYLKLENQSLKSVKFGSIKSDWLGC
Matrix metalloproteinase-9 (Homo sapiens, UniProt P14780), sequence (P14780 whole entry): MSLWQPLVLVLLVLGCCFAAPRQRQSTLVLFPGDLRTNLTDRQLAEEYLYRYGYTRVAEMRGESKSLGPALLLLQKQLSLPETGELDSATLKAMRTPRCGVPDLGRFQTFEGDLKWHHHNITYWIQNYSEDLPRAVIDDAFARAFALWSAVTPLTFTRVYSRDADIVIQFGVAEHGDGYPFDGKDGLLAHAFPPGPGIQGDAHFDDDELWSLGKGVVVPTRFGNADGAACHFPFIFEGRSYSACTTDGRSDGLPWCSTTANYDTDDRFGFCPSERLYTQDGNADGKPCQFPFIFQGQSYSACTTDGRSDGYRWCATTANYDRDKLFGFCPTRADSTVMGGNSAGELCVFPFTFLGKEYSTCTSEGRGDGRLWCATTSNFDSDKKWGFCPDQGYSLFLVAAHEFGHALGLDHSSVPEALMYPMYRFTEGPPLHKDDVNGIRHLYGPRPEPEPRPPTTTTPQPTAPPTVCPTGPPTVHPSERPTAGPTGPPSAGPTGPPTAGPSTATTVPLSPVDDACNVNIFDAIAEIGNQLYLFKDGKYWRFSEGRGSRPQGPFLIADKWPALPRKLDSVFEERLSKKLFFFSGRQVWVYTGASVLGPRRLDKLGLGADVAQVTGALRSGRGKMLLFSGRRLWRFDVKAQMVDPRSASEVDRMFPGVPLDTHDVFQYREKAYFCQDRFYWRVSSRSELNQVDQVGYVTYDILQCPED
Stromelysin-1, sequence (P08254 whole entry): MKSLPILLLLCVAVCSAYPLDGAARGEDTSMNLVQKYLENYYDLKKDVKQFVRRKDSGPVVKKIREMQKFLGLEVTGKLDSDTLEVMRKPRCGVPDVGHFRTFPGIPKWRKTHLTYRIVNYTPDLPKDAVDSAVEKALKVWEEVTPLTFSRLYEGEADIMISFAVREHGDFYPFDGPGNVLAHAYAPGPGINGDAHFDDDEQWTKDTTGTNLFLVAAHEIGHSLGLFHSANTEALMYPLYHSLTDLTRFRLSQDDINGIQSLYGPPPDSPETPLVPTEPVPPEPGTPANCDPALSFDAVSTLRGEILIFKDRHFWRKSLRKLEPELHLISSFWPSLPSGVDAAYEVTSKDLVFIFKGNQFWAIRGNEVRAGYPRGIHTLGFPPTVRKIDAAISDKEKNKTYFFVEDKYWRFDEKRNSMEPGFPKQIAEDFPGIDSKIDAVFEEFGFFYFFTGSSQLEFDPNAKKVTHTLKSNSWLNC
Matrix metalloproteinase-9 (Mus musculus, UniProt P41245), sequence (P41245 whole entry): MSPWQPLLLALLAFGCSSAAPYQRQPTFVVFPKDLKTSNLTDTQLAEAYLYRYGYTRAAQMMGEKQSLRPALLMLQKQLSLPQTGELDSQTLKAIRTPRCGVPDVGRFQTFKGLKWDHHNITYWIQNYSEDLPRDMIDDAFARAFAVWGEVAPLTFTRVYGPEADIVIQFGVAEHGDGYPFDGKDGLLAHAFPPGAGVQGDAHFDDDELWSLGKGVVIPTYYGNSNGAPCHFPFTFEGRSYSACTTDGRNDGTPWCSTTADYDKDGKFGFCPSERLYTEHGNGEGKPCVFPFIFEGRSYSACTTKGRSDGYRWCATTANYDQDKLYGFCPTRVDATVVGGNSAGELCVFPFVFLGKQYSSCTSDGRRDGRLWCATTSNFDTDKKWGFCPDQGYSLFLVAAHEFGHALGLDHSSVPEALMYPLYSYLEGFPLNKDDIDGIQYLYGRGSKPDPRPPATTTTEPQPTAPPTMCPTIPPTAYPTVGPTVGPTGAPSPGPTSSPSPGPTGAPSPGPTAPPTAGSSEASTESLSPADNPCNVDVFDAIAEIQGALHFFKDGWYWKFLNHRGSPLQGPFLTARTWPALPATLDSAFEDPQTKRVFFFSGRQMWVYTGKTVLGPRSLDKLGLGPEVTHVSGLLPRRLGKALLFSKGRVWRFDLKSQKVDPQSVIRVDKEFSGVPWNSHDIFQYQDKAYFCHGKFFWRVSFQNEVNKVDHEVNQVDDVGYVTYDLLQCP
72 kDa type IV collagenase (Mus musculus, UniProt P33434), sequence (P33434 whole entry): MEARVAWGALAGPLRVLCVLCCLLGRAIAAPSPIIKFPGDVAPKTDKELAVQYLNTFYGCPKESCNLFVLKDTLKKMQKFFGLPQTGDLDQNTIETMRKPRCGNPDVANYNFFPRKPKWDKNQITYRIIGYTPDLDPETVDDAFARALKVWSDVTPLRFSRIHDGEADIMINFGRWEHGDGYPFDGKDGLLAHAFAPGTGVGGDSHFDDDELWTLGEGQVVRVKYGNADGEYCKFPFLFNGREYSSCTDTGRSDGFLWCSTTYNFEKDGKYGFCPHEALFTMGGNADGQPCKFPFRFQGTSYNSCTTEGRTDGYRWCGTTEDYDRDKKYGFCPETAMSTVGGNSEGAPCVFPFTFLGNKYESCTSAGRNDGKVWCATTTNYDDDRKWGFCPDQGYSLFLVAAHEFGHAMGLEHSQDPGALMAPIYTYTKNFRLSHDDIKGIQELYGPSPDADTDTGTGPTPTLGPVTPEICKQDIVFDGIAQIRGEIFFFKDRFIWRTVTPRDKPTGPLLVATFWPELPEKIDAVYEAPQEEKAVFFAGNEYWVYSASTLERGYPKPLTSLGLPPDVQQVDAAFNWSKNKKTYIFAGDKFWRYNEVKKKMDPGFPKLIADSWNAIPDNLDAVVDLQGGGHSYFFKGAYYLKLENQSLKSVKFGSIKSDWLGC

Take `COc1ccc(S(=O)(=O)N(Cc2cccnc2)[C@@H](C(=O)NO)C(C)C)cc1` [CGS-27023A]: the IC50 in test [1] amounted to 15 nM; in test [2] it was 10 nM.
Consider `CSCC[C@@H](C(=O)NO)N(CC(C)C)S(=O)(=O)c1ccc(-c2ccccc2)cc1`, for which the IC50 at Collagenase 3 is 3 nM; in test [3], 0.7 nM; in test [4] it was 0.2 nM; at Stromelysin-1, 37 nM; on Interstitial collagenase it was 156 nM.
As to `COc1ccc(S(=O)(=O)N(CC(C)C)[C@@H](CCSCc2ccc(OCc3ccccc3)cc2)C(=O)NO)cc1`, the IC50 in test [4] was 8 nM; against Stromelysin-1, 29 nM.
With `CC(C)CN([C@@H](CCSCc1ccccc1)C(=O)NO)S(=O)(=O)c1ccc(-c2ccccc2)cc1`, the concentration for half-maximal inhibition (IC50) at Collagenase 3 was found to be 3.8 nM; in test [1] it was 4.1 nM; on Stromelysin-1, 90 nM; in test [2], 2.5 nM.
`COc1ccc(S(=O)(=O)N(CC(C)C)[C@@H](CCSCc2ccc(-c3ccccc3)cc2)C(=O)NO)cc1`: the IC50 in test [3] was 30 nM; in test [4] it was 0.2 nM; on Stromelysin-1 it was 20 nM.
For the molecule `CC[C@@H](C(=O)NO)N(CC(C)C)S(=O)(=O)c1ccc(OC)cc1`, the IC50 against Collagenase 3 is 96 nM; in test [3], 53 nM; in test [4], 7 nM; on Stromelysin-1 it was 45 nM; against Interstitial collagenase it was 384 nM.
`COc1ccc(S(=O)(=O)N(CC(=O)NC(c2ccccc2)c2ccccc2)[C@H](CCSCc2ccccc2)C(=O)NO)cc1`: the IC50 at Collagenase 3 was found to be 4.5 nM; in test [1] it was 2.3 nM; against Stromelysin-1 it was 3.7 nM; in test [2] it was 0.5 nM.
`COc1ccc(S(=O)(=O)N(CC(C)C)[C@@H](CCSCc2ccccc2)C(=O)NO)cc1`: the IC50 is 12 nM at Collagenase 3; 0.7 nM in test [3]; 2.5 nM in test [4]; 0.7 nM against Stromelysin-1; 104 nM at Interstitial collagenase.

(Values after ChEMBL document CHEMBL1132530, “Picking the S1, S1' and S2' pockets of matrix metalloproteinases. A niche for potent acyclic sulfonamide inhibitors” (Bioorg Med Chem Lett, 1999).)
